Experimental data taken from patent US20110046228A1 (priority 2009, published 2011).
Several values for one entry are separate records, joined by “and”; a condition that tells them apart may be missing. Equal values may be shown once. Read-outs that look alike come from different tables or passages of the source.

Experiments:
[1] = with a single glass (200-250 mL) of grapefruit juice; cited from earlier work
[2] = design: AUC0-t, Geometric Mean: unit not given beside the values
clinical = conditions: both, human, plasma, oral, 0.6 mg; for AUC(0-t): AUC0-t; for AUC(0-inf): AUC0-∞; for CL/F: Weight-Adjusted CL/F
Experimental: This study is an open-label, non-randomized, single-center, one-sequence, two-period drug interaction study conducted in healthy male and female volunteers. Twenty-four (24) non-smoking, non-obese adult volunteers will be enrolled. All subjects will be dosed and studied as a single cohort, with each subject receiving the same treatment in a non-randomized fashion. As described below, a single dose of colchicine, 0.6 mg, will be administered alone on Day 1, and then co-administered with the grapefruit juice on Day 18. Grapefruit juice will be administered for 4 consecutive days (1×240 mL twice daily Days 15-17 and Day 18 (PM) alone and co-administered with a single 0.6 mg colchicine tablet in the morning on Day 18 (AM) (1×240 mL) beginning on the morning of Day 15, with the last 240 mL grapefruit juice dose administered in the evening of Day 18. A 14-day washout period will be completed after the first colchicine dose on Day 1 and prior to the administration of the first grapefruit juice dose on Day 15.
Grapefruit juice ([…] ® brand) will be purchased and stored according to the labeled instructions. Subjects in the study will consume 240 mL (8 fluid ounces) of juice every 12 hours for 8 doses (4 day regimen) to ensure the maximum inhibitory effect.
Following a screening period of up to 28 days, 24 healthy male and female volunteers will be enrolled. Subjects will be confined to the study unit for approximately 1.5 days on two separate occasions starting at least 10 hours prior to dosing on the evening of Day 1 and Day 17 until 24 hours following study drug administration on Day 1 and Day 18. In addition to confinement, study subjects will return to the clinical study site for the collection of blood samples 36, 48, 72, and 96 hours post dosing during both colchicine pharmacokinetic sampling periods. Total study participation, exclusive of up to 28 days of screening, will be approximately 22 days, during which subjects will be confined on two occasions for a total confinement of approximately 3 days.
All subjects will receive a single 0.6 mg dose of colchicine on Day 1, followed by a 14-day washout period in which subjects will not be confined at study site. At discharge on Day 2 (at approximately 8 AM), study subjects will be instructed to return to the clinical site on Days 15 through 17 in the mornings and evenings to consume (1×240 mL, i.e., 8 fluid ounces) grapefruit juice twice daily on Days 15 through 17 in a ‘directly-observed’ fashion. On the evening of Day 17, study participants will return to the clinic for their final study confinement period. In the morning of Day 18, study subjects will receive a single 0.6 mg colchicine dose with a 240 mL serving of grapefruit juice. In the evening of Day 18, study subjects will receive their final 240 mL serving of grapefruit juice administered alone.
A minimum fasting period of 10 hours (overnight fast) will be in effect before administration of colchicine on Day 1 and prior to the administration of colchicine and grapefruit juice on Day 18. Fasting will continue for 4 hours post-dosing on Days 1 and 18 after the morning administration. Grapefruit juice doses administered on Days 15-17 and Day 18 (PM) will not be in a fasted state. For colchicine, medication must be swallowed whole, not chewed. For grapefruit juice, the entire serving must be consumed. For all treatments, the subjects will not be permitted to lie down for the first 4 hours following administration of drug to ensure proper stomach emptying. On both of the confined study days after the morning administrations (Day 1 and Day 18), water will be allowed ad libitum beginning 2 hours post-dose. Intake of all study medications will be supervised. Standardized meals will be served according to a pre-determined schedule throughout the study.
Serial blood samples will be collected by individual venipuncture up to 96 hours following drug administration on Day 1 and Day 18.

[3] = tested on: individuals with Behcet's syndrome (or disease); conditions: adjusted to bodyweight, cited from earlier work
[4] = individual subjects, single 0.6 mg colchicine, plasma, A Day 1, A + B Day 18
[5] = maximum of N = 21, single 0.6 mg colchicine, plasma
[6] = mean of N = 21, single 0.6 mg colchicine, plasma
[7] = median of N = 21, single 0.6 mg colchicine, plasma
[8] = minimum of N = 21, single 0.6 mg colchicine, plasma
[9] = single 0.6 mg colchicine dose, plasma
[10] = Least Squares Mean, Non-Transformed Data, single 0.6 mg colchicine dose
[11] = Mean, mean of N = 21, single 0.6 mg colchicine
[12] = Median, median of N = 21, single 0.6 mg colchicine
[13] = Geometric Mean, single 0.6 mg colchicine dose, N = 21, based on least squares means of ln-transformed values

CCOC(=O)C1=C(C)NC(C)=C(C(=O)OC)C1c1cccc(Cl)c1Cl (stereo not shown) [felodipine]
Change in AUC and Cmax of orally administered felodipine [1]: several-fold increase

COc1cc2c(c(OC)c1OC)-c1ccc(OC)c(=O)cc1[C@@H](NC(C)=O)CC2 [Treatment A, (−)-N-[(7S, 12aS)-1,2,3,10-tetramethoxy-9-oxo-5,6,7,9-tetrahydrobenzo[a]heptalen-7-yl]-acetamide]
AUC0-∞ [2, 4]: 10.8336 ng·h/mL and 14.15474 ng·h/mL and 9.5485 ng·h/mL and 13.07636 ng·h/mL and 20.67702 ng·h/mL and 9.19604 ng·h/mL and 7.56206 ng·h/mL and 10.95321 ng·h/mL and 12.50531 ng·h/mL and 8.2513 ng·h/mL and 7.55929 ng·h/mL and 21.66786 ng·h/mL and 8.57677 ng·h/mL and 10.79516 ng·h/mL and 4.54846 ng·h/mL and 9.55313 ng·h/mL | CL/F [2, 4]: 55.38 L/h and 42.39 L/h and 62.84 L/h and 57.10 L/h and 45.88 L/h and 29.02 L/h and 65.25 L/h and 79.34 L/h and 54.78 L/h and 57.58 L/h and 51.63 L/h and 57.64 L/h and 47.98 L/h and 72.72 L/h and 79.37 L/h and 27.69 L/h and 58.47 L/h and 69.96 L/h and 55.58 L/h and 131.91 L/h and 62.81 L/h | Kel [2, 4]: 0.1619 h⁻¹ and 0.2194 h⁻¹ and 0.1653 h⁻¹ and 0.1160 h⁻¹ and 0.1881 h⁻¹ and 0.0484 h⁻¹ and 0.2291 h⁻¹ and 0.1859 h⁻¹ and 0.1655 h⁻¹ and 0.1563 h⁻¹ and 0.1843 h⁻¹ and 0.1946 h⁻¹ and 0.1506 h⁻¹ and 0.1355 h⁻¹ and 0.2178 h⁻¹ and 0.0847 h⁻¹ and 0.1512 h⁻¹ and 0.1866 h⁻¹ and 0.1851 h⁻¹ and 0.2814 h⁻¹ and 0.1925 h⁻¹ | Tmax [2, 4]: 1.00 h and 2.00 h | Varea/F [2, 4]: 342.07 L and 193.19 L and 380.20 L and 492.22 L and 243.91 L and 599.39 L and 284.79 L and 426.86 L and 331.07 L and 368.37 L and 280.11 L and 296.22 L and 318.56 L and 536.77 L and 364.36 L and 327.00 L and 386.70 L and 374.82 L and 300.24 L and 468.69 L and 326.22 L | t1/2 [2, 4]: 4.28 h and 3.16 h and 4.19 h and 5.98 h and 3.68 h and 14.32 h and 3.03 h and 3.73 h and 4.43 h and 3.76 h and 3.56 h and 4.60 h and 5.12 h and 3.18 h and 8.19 h and 4.58 h and 3.71 h and 3.74 h and 2.46 h and 3.60 h | AUC0-t, Max [2, 5]: 18.3968 ng·h/mL | AUC0-∞, Max [2, 5]: 21.66786 ng·h/mL | CL/F, Max [2, 5]: 131.91 L/h | Cmax, Max [2, 5]: 3.758 ng/mL | Kel, Max [2, 5]: 0.2814 h⁻¹ | Tmax, Max [2, 5]: 2.00 h | Varea/F, Max [2, 5]: 599.39 L | t1/2, Max [2, 5]: 14.32 h | CL/F, Mean [2, 6]: 60.25 L/h | Kel, Mean [2, 6]: 0.1714 h⁻¹ | Varea/F, Mean [2, 6]: 363.89 L | CL/F, Median [2, 7]: 57.58 L/h | Kel, Median [2, 7]: 0.1843 h⁻¹ | Varea/F, Median [2, 7]: 342.07 L | t1/2, Median [2, 7]: 3.76 h | AUC0-t, Min [2, 8]: 3.83287 ng·h/mL | AUC0-∞, Min [2, 8]: 4.54846 ng·h/mL | CL/F, Min [2, 8]: 27.69 L/h | Cmax, Min [2, 8]: 0.8452 ng/mL | Kel, Min [2, 8]: 0.0484 h⁻¹ | Tmax, Min [2, 8]: 1.00 h | Varea/F, Min [2, 8]: 193.19 L | t1/2, Min [2, 8]: 2.46 h | Bioequivalence of oral colchicine with grapefruit juice vs in the absence of grapefruit juice ([2]; recommended maximum daily amount of grapefruit juice (about 16 fluid ounces daily)): bioequivalent | Kel, Least Squares Mean, Non-Transformed Data [2, 9]: 0.1714 | Varea/F, Least Squares Mean, Non-Transformed Data [2, 9]: 363.89 | AUC0-t, Geometric Mean ([2]; single 0.6 mg colchicine dose, plasma, N = 21, based on least squares means of ln-transformed values): 8806.78 | AUC(0-t) (clinical; [10]): 9.33 ng·h/mL | AUC(0-t) (clinical; [11]): 9.33 ng·h/mL | AUC(0-t) (clinical; [12]): 8.84 ng·h/mL | AUC(0-inf) (clinical; [13]): 10.5 ng·h/mL | AUC(0-inf) (clinical; [10]): 11.1 ng·h/mL | AUC(0-inf) (clinical; [11]): 11.1 ng·h/mL | AUC(0-inf) (clinical; [12]): 10.4 ng·h/mL | Cmax (clinical; [13]): 2.07 ng/mL | Cmax (clinical; [10]): 2.17 ng/mL | Cmax (clinical; [11]): 2.17 ng/mL | Cmax (clinical; [12]): 2.06 ng/mL | Tmax (clinical; [10]): 1.24 h | Tmax (clinical; [11]): 1.24 h | Tmax (clinical; [12]): 1 h | CL/F (clinical; [10]): 12.3 mL/min/kg | CL/F (clinical; [11]): 12.3 mL/min/kg | CL/F (clinical; [12]): 11.3 mL/min/kg | half-life (clinical; t1/2, Least Squares Mean, Non-Transformed Data, single 0.6 mg colchicine dose): 4.64 h | half-life (clinical; t1/2, Mean, mean of N = 21, single 0.6 mg colchicine): 4.64 h | Clinical effect in Behcet's disease ([3]; 1-2 mg daily): reduced the frequency of genital ulcers, erythema nodosum, and arthritis among women and reduced the occurrence of arthritis among men | Clinical effect in Behcet's syndrome ([3]; 1-2.4 mg daily): reduced the frequency of genital ulcers, erythema nodosum, and arthritis among women and reduced the occurrence of arthritis among men
